Laboratory results published in US20260125378A2, “Heterocyclic Compounds” (BeOne Medicines I GmbH, priority 2023, published 2026).

What was measured:
[1] = target: T1, Full length DGKα (D21-10BG, SignalChem) (Homo sapiens, UniProt P23743); assay: Biochemical DGK IC50 assay (ADP-Glo, lipid micelle substrate), DGKα; conditions: 1 hour preincubation, 1 hour reaction, room temperature
T1 construct: Full length DGKα (D21-10BG, SignalChem); purchased SignalChem D21-10BG
Protocol: (§1) Enzymatic reactions of DGKζ, DGKα and DGKδ were performed using ADP-Glo assay with lipid micelle substrate. […] Full length DGKα (D21-10BG, SignalChem) and full length DGKδ (D23-10G, SignalChem) were purchased. Lipid micelle was prepared by dissolving DAG (Sigma, 317505-10 MG) and PS (Sigma, P7769-100 MG) with chloroform which was furtherly removed by rotary evaporation. The obtained residue was resuspended in buffer containing 25 mM HEPES pH 7.0, 0.5 mM EDTA and 160 mM Octyl β-D glucopyranoside by vigorous mixing and ultrasonic (IID, Scientz).
(§2) The inhibition activities testing for the compound disclosed herein were carried out at room temperature in assay buffer containing 50 mM HEPES, 10 mM MgCl2, 0.01% BSA, 0.1 mM Na3VO4, 0.005% Tween-20 and 0.01 mM CaCl2). Compounds in DMSO were dispensed into wells of a black 384 well plate (Corning 4514) using D300e digital dispenser (Tecan). […] 3 μL 2× enzyme solution was added to wells. […] After 1 hour reaction, 5 μL ADP-Glo reagent (Promga V9101) was added and incubated for 40 minutes. 10 μL Kinase Detection reagent was added and incubated for 30 minutes. Luminescence was measured on a microplate reader (PHERAstar FSX, BMG labtech). The IC50S are calculated based on inhibition of enzyme activity in the presence of increasing concentrations of compounds.

[2] = target: T2, Full length DGKζ (in-house protein M1-V929) (Homo sapiens, UniProt Q13574); assay: Biochemical DGK IC50 assay (ADP-Glo, lipid micelle substrate), DGKζ; conditions: 1 hour preincubation, 1 hour reaction, room temperature
T2 construct: His (N); TEV site (N); made in house; host or cells: Sf9 insect cells (Bac-to-Bac baculovirus)
T2 sequence (Q13574 1-929 isoform Q13574-4): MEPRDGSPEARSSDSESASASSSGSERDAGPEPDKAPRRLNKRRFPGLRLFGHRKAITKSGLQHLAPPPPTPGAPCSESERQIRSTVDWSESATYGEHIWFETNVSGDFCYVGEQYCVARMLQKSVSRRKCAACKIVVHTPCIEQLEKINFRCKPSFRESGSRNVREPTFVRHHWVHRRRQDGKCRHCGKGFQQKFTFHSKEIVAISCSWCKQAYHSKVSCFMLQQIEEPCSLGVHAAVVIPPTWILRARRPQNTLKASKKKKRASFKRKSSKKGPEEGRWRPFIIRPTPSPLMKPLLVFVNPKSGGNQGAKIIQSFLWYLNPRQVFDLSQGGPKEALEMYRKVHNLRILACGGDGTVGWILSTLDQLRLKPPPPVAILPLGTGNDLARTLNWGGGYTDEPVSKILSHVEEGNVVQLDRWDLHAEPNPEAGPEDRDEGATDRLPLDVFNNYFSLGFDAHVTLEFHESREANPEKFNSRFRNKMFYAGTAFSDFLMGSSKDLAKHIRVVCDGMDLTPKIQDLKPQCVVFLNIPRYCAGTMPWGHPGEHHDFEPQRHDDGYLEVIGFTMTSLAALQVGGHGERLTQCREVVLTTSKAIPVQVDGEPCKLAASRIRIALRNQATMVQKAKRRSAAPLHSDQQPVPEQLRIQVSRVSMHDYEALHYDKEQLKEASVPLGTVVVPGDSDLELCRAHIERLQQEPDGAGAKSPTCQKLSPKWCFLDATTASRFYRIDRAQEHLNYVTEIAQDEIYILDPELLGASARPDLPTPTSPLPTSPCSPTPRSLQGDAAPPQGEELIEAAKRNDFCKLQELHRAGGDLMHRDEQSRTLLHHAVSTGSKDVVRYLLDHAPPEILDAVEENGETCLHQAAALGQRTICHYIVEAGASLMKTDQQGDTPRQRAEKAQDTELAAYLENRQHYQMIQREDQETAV
Protocol: as §1, §2
Human His-TEV-DGK-zeta-pFastBac1 and human baculovirus samples was generated using the Bac- to -Bac baculovirus expression system (Invitrogen) according to the manufacturer's protocol. The DNA used for expression of DGK-zeta, have SEQ ID Nos: 1. Baculovirus amplification was achieved using infected SF9 cells at 1:2000 virus/cells ratios, and grown for 96 hours at 27° C. post-transfected.
The expression scaled up for each protein was carried out in the […] from CORNING. 4 L of 3×10^6 cells/mL Sf9 cells (Expression System, Invitrogen) grown in SF900™ II SFM insect medium (Expression System) was infected with virus stock at 1:200 virus/cells ratio, and grown for 48 hours at 27° C. post-transfection. The infected cell culture was harvested by centrifugation at 6000 rpm for 15 min 4° C. in a SORVALL LYNX6000 centrifuge. The cell pellets were stored at −80° C.
Full length human DGKζ produced as described above, was purified from Sf9 baculovirus-infected insect cell paste. The cells were lysed using sonication method, and the lysates were clarified by centrifugation.

T1 sequence (P23743 whole entry): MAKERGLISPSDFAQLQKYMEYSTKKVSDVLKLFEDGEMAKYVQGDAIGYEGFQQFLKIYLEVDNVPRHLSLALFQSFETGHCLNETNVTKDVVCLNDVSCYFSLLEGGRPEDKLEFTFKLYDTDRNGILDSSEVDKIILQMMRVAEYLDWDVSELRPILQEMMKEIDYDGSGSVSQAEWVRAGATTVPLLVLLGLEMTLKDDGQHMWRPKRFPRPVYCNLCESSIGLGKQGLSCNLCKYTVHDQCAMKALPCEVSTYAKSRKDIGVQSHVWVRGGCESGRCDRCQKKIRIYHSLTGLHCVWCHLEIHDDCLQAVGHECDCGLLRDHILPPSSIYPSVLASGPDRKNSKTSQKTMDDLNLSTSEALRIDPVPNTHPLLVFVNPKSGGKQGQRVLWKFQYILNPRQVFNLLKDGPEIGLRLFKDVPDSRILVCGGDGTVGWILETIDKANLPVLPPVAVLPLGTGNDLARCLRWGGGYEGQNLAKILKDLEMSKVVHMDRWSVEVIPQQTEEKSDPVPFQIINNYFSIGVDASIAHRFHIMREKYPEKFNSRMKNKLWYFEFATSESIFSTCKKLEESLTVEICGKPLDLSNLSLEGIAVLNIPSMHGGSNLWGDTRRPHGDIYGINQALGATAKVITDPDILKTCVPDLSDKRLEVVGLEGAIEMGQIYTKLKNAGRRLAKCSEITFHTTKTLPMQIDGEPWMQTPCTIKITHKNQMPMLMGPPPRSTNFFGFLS

| SMILES | IC50 [1] [nM] | IC50 [2] [nM] |
| --- | --- | --- |
| CC(c1cc(F)c2c(c1)OC(C)(C)CO2)N1C[C@H](C)N(c2nc(=O)n(C)c3c2nc(CC#N)n3C)C[C@H]1C (mixture of isomers) [Compound A68, 2-(6-((2S,5R)-4-(1-(8-fluoro-3,3-dimethyl-2,3-dihydrobenzo[b][1,4]dioxin-6-yl)ethyl)-2,5-dimethylpiperazin-1-yl)-3,9-dimethyl-2-oxo-3,9-dihydro-2H-purin-8-yl)acetonitrile] | 43800 | 7 |
| CCn1c(CC#N)nc2c(N3C[C@@H](C)N(C(C)c4ccc5c(c4)OC(F)(F)CO5)C[C@@H]3C)nc(=O)n(C)c21 (mixture of isomers) [Compound A80, 2-(6-((2S,5R)-4-(1-(3,3-difluoro-2,3-dihydrobenzo[b][1,4]dioxin-6-yl)ethyl)-2,5-dimethylpiperazin-1-yl)-9-ethyl-3-methyl-2-oxo-3,9-dihydro-2H-purin-8-yl)acetonitrile] | 95000 | 31 |
| CCn1c(CC#N)nc2c(N3C[C@@H](C)N(C(C)c4cccc(C(F)(F)F)c4)C[C@@H]3C)nc(=O)n(C)c21 (mixture of isomers) [Compound A42, 2-(6-((2S,5R)-2,5-dimethyl-4-(1-(3-(trifluoromethyl)phenyl)ethyl)piperazin-1-yl)-9-ethyl-3-methyl-2-oxo-3,9-dihydro-2H-purin-8-yl)acetonitrile] | 61900 | 42 |
| CC(c1ccc2c(c1)OC(F)(F)C(F)(F)O2)N1C[C@H](C)N(c2nc(=O)n(C)c3c2nc(CC#N)n3C)C[C@H]1C (mixture of isomers) [Compound A79, 2-(6-((2S,5R)-2,5-dimethyl-4-(1-(2,2,3,3-tetrafluoro-2,3-dihydrobenzo[b][1,4]dioxin-6-yl)ethyl)piperazin-1-yl)-3,9-dimethyl-2-oxo-3,9-dihydro-2H-purin-8-yl)acetonitrile] | 16400 | 16 |
| CCn1c(CC#N)nc2c(N3C[C@@H](C)N(C(C)c4ccc5c(c4)OC(C)(C)O5)C[C@@H]3C)nc(=O)n(C)c21 (mixture of isomers) [Compound A85, 2-(6-((2S,5R)-4-(1-(2,2-dimethylbenzo[d][1,3]dioxol-5-yl)ethyl)-2,5-dimethylpiperazin-1-yl)-9-ethyl-3-methyl-2-oxo-3,9-dihydro-2H-purin-8-yl)acetonitrile] | 103000 | 25 |
| CC(c1ccc2nccnc2c1)N1C[C@H](C)N(c2cc(=O)n(C)c3c2nc(CC#N)n3C)C[C@H]1C (single isomer, unassigned) [Compound A1a] | 14900 | 9 |
| CC(c1ccc2nccnc2c1)N1C[C@H](C)N(c2cc(=O)n(C)c3c2nc(CC#N)n3C)C[C@H]1C (single isomer, unassigned) [Compound A1b] | > 10000 | 2350 |
| COc1cc(F)ccc1C(C)N1C[C@H](C)N(c2cc(=O)n(C)c3c2nc(CC#N)n3C)C[C@H]1C (single isomer, unassigned) [Compound A4a] | > 10000 | 566 |
| COc1cc(F)ccc1C(C)N1C[C@H](C)N(c2cc(=O)n(C)c3c2nc(CC#N)n3C)C[C@H]1C (single isomer, unassigned) [Compound A4b] | > 10000 | 64 |

Other lines, results leading:

| IC50 [1] [nM] | IC50 [2] [nM] | SMILES |
| --- | --- | --- |
| 23200 | 14 | CCn1c(CC#N)nc2c(N3C[C@@H](C)N(C(C)c4ccc5c(c4)OC(C)(C)CC5)C[C@@H]3C)nc(=O)n(C)c21 (mixture of isomers) [Compound A94, 2-(6-((2S,5R)-4-(1-(2,2-dimethylchroman-7-yl)ethyl)-2,5-dimethylpiperazin-1-yl)-9-ethyl-3-methyl-2-oxo-3,9-dihydro-2H-purin-8-yl)acetonitrile] |
| 122000 | 33 | CC[C@@H]1CN(c2nc(=O)n(C)c3c2nc(CC#N)n3CC)[C@@H](C)CN1C(C)c1ccc2c(n1)OC(C)(C)CO2 (mixture of isomers) [Compound A158, 2-(6-((2S,5R)-4-(1-(3,3-dimethyl-2,3-dihydro-[1,4]dioxino[2,3-b]pyridin-6-yl)ethyl)-5-ethyl-2-methylpiperazin-1-yl)-9-ethyl-3-methyl-2-oxo-3,9-dihydro-2H-purin-8-yl)acetonitrile] |
| 31500 | 11 | CC[C@@H]1CN(c2nc(=O)n(C)c3c2nc(CC#N)n3C)[C@@H](C)CN1C(C)c1ccc2c(n1)OC(C)(C)CO2 (mixture of isomers) [Compound A159, 2-(6-((2S,5R)-4-(1-(3,3-dimethyl-2,3-dihydro-[1,4]dioxino[2,3-b]pyridin-6-yl)ethyl)-5-ethyl-2-methylpiperazin-1-yl)-3,9-dimethyl-2-oxo-3,9-dihydro-2H-purin-8-yl)acetonitrile] |
| > 150000 | 81 | CCn1c(CC#N)nc2c(N3C[C@@H](C)N(C(C)c4nc5c(cc4F)OCC(C)(C)O5)C[C@@H]3C)nc(=O)n(C)c21 (mixture of isomers) [Compound A161, 2-(9-ethyl-6-((2S,5R)-4-(1-(7-fluoro-3,3-dimethyl-2,3-dihydro-[1,4]dioxino[2,3-b]pyridin-6-yl)ethyl)-2,5-dimethylpiperazin-1-yl)-3-methyl-2-oxo-3,9-dihydro-2H-purin-8-yl)acetonitrile] |
| > 150000 | 48 | CCn1c(CC#N)nc2c(N3C[C@@H](C)N(C(C)c4cc(F)c5c(n4)OC(C)(C)CO5)C[C@@H]3C)nc(=O)n(C)c21 (mixture of isomers) [Compound A163, 2-(9-ethyl-6-((2S,5R)-4-(1-(8-fluoro-3,3-dimethyl-2,3-dihydro-[1,4]dioxino[2,3-b]pyridin-6-yl)ethyl)-2,5-dimethylpiperazin-1-yl)-3-methyl-2-oxo-3,9-dihydro-2H-purin-8-yl)acetonitrile] |
| 143000 | 44 | CCn1c(CC#N)nc2c(N3C[C@@H](C)N(C(C)c4cc(F)c5c(c4)OC(C)(C)O5)C[C@@H]3C)nc(=O)n(C)c21 (mixture of isomers) [Compound A173, 2-(9-ethyl-6-((2S,5R)-4-(1-(7-fluoro-2,2-dimethylbenzo[d][1,3]dioxol-5-yl)ethyl)-2,5-dimethylpiperazin-1-yl)-3-methyl-2-oxo-3,9-dihydro-2H-purin-8-yl)acetonitrile] |
| 4080 | 7 | CC(c1ccc2nccnc2c1)N1C[C@H](C)N(c2cc(=O)n(C)c3sc(CC#N)nc23)C[C@H]1C (mixture of isomers) [Compound A194, 2-(7-((2S,5R)-2,5-dimethyl-4-(1-(quinoxalin-6-yl)ethyl)piperazin-1-yl)-4-methyl-5-oxo-4,5-dihydrothiazolo[5,4-b]pyridin-2-yl)acetonitrile] |
| 50500 | 42 | CCc1nc2cc(C(C)N3C[C@H](C)N(c4nc(=O)n(C)c5c4nc(CC#N)n5CC)C[C@H]3C)ccc2s1 (mixture of isomers) [Compound A95, 2-(9-ethyl-6-((2S,5R)-4-(1-(2-ethylbenzo[d]thiazol-5-yl)ethyl)-2,5-dimethylpiperazin-1-yl)-3-methyl-2-oxo-3,9-dihydro-2H-purin-8-yl)acetonitrile] |
| 95100 | 32 | CCn1c(CC#N)nc2c(N3C[C@@H](C)N(C(C)c4cccc(C(C)C)c4)C[C@@H]3C)nc(=O)n(C)c21 (mixture of isomers) [Compound A108, 2-(9-ethyl-6-((2S,5R)-4-(1-(3-isopropylphenyl)ethyl)-2,5-dimethylpiperazin-1-yl)-3-methyl-2-oxo-3,9-dihydro-2H-purin-8-yl)acetonitrile] |
| 28500 | 31 | CCn1c(CC#N)nc2c(N3C[C@@H](C)N(C(C)c4ccc5c(c4)OC4(CCC4)O5)C[C@@H]3C)nc(=O)n(C)c21 (mixture of isomers) [Compound A169, 2-(6-((2S,5R)-2,5-dimethyl-4-(1-(spiro[benzo[d][1,3]dioxole-2,1′-cyclobutan]-5-yl)ethyl)piperazin-1-yl)-9-ethyl-3-methyl-2-oxo-3,9-dihydro-2H-purin-8-yl)acetonitrile] |
| 106000 | 13 | CCn1c(CC#N)nc2c(N3C[C@@H](C)N(C(C)c4ccc5c(c4F)OC(C)(C)O5)C[C@@H]3C)c(F)c(=O)n(C)c21 (mixture of isomers) [Compound A190, 2-(3-ethyl-6-fluoro-7-((2S,5R)-4-(1-(4-fluoro-2,2-dimethylbenzo[d][1,3]dioxol-5-yl)ethyl)-2,5-dimethylpiperazin-1-yl)-4-methyl-5-oxo-4,5-dihydro-3H-imidazo[4,5-b]pyridin-2-yl)acetonitrile] |
